Laboratory results: patent publication EP1175402B1, “PIPERIDINE DERIVATIVES USEFUL AS CCR5 ANTAGONISTS” (SCHERING CORPORATION, priority 1999, dated 2000)

Target: T1, human CCR5 chemokine receptor (Homo sapiens, UniProt P51681)
T1 construct: expressed in transfected cells; host or cells: NIH 3T3 cells (murine), membranes
Assay: CCR5 membrane binding assay (inhibition of 125I-RANTES binding)
Details: membranes from NIH 3T3 cells expressing the human CCR5 chemokine receptor, one hour incubation
Protocol: CCR5 Membrane Binding Assay:
A high throughput screen utilizing a CCR5 membrane binding assay identifies inhibitors of RANTES binding. This assay utilizes membranes prepared from NIH 3T3 cells expressing the human CCR5 chemokine receptor which have the ability to bind to RANTES, a natural ligand for the receptor. Using a 96-well plate format, membrane preparations are incubated with ^125I-RANTES in the presence or absence of compound for one hour. Compounds are serially diluted over a wide range of 0.001 ug/ml to 1 ug/ml and tested in triplicates. Reaction cocktails are harvested through glass fiber filters, and washed thoroughly. Total counts for replicates are averaged and data reported as the concentration required to inhibit 50 percent of total ^125I-RANTES binding.

T1 sequence (P51681 whole entry): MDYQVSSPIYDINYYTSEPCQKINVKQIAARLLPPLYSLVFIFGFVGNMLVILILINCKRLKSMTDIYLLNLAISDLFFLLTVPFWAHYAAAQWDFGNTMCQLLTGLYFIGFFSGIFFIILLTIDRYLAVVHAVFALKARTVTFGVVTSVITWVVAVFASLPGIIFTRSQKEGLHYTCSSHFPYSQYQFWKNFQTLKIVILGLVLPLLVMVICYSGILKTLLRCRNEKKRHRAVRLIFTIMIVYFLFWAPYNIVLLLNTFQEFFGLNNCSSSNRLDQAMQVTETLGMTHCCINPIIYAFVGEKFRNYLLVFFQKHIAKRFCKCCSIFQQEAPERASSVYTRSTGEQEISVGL

Row | SMILES | Ki [nM]
1 | Cc1ncnc(C)c1C(=O)N1CCC(C)(N2CCC(C(Oc3ccccn3)c3ccc(Br)cc3)CC2)CC1 (single isomer, unassigned) [Example 4C] | 0.5
2 | CCC(=O)OC(c1ccc(Br)cc1)C1CCN(C2(C)CCN(C(=O)c3c(C)cccc3C)CC2)CC1 (stereo not shown) [Example 1B] | 14
3 | Cc1ccnc(C)c1C(=O)N1CCC(C)(N2CCC(C(Oc3ccccn3)c3ccc(S(C)(=O)=O)cc3)CC2)CC1 (stereo not shown) [Example 2] | 9.6
4 | CO/N=C(/c1ccc(OC(F)(F)F)cc1)C1CCN(C2(C)CCN(C(=O)c3c(C)cccc3C)CC2)CC1 [Example 7U] | 62.5
